Results on six compounds are retold here after patent US12077503B2, “Substituted cyclic amides and their use as herbicides” (FMC CORPORATION, priority 2015, dated 2024).

Common to all, as to test: Test A preemergence
Common to all, as to assay type: in vivo

Assay [1] concerns ryegrass, Italian (Italian ryegrass, Lolium multiflorum). The following applies: Lolium multiflorum, pre-emergence, 240 h; for pest or weed control at 125 g/ha: 125 g ai/ha, preemergence, 0 to 100 scale where 0 is no effect and 100 is complete control, read-out: Ryegrass, Italian plant response rating; for pest or weed control at 500 g/ha: 500 g ai/ha, Preemergence, visual injury vs untreated controls after approximately 10 d, read-out: Ryegrass, Italian plant response rating (0 to 100 scale where 0 is no effect and 100 is complete control). In outline:
(§1)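 Seeded soil received test chemicals as a preemergence directed spray, and seedlings at one to two leaves, 2–10 cm tall, received them postemergence, in a non-phytotoxic, surfactant-containing solvent mixture. Pots were held in a greenhouse for approximately 10 d, then rated for injury from 0, no effect, to 100, complete control.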

Assay [2] deals with Kochia (Kochia scoparia). The following applies: Bassia scoparia, pre-emergence, 240 h; for pest or weed control at 125 g/ha: 125 g ai/ha, preemergence, 0 to 100 scale where 0 is no effect and 100 is complete control, read-out: Kochia plant response rating; for pest or weed control at 500 g/ha: 500 g ai/ha, Preemergence, visual injury vs untreated controls after approximately 10 d, read-out: Kochia plant response rating (0 to 100 scale where 0 is no effect and 100 is complete control). In outline:
as §1

The test system of assay [3] is pigweed (Amaranthus retroflexus). Conditions: Amaranthus retroflexus, pre-emergence, 240 h; for pest or weed control at 125 g/ha: 125 g ai/ha, preemergence, 0 to 100 scale where 0 is no effect and 100 is complete control, read-out: Pigweed plant response rating; for pest or weed control at 500 g/ha: 500 g ai/ha, Preemergence, visual injury vs untreated controls after approximately 10 d, read-out: Pigweed plant response rating (0 to 100 scale where 0 is no effect and 100 is complete control).

Assay [4] deals with barnyardgrass (Echinochloa crus-galli). Conditions: Echinochloa crus-galli, pre-emergence, 240 h; for pest or weed control at 125 g/ha: 125 g ai/ha, preemergence, 0 to 100 scale where 0 is no effect and 100 is complete control, read-out: Barnyardgrass plant response rating; for pest or weed control at 500 g/ha: 500 g ai/ha, Preemergence, visual injury vs untreated controls after approximately 10 d, read-out: Barnyardgrass plant response rating (0 to 100 scale where 0 is no effect and 100 is complete control). In outline: as §1

Assay [5] concerns ragweed (common ragweed, Ambrosia elatior). Conditions: Ambrosia artemisiifolia, pre-emergence, 240 h; for pest or weed control at 125 g/ha: 125 g ai/ha, preemergence, 0 to 100 scale where 0 is no effect and 100 is complete control, read-out: Ragweed plant response rating; for pest or weed control at 500 g/ha: 500 g ai/ha, Preemergence, visual injury vs untreated controls after approximately 10 d, read-out: Ragweed plant response rating (0 to 100 scale where 0 is no effect and 100 is complete control). In outline: as §1

`Cc1cc(F)ccc1NC(=O)[C@H]1C(=O)NC[C@@H]1c1cccc(C(F)(F)F)c1` [Compound 828]: the pest or weed control at 125 g/ha in assay [1] was found to be 50%; in assay [2] it was 40%; in assay [3], 0%; in assay [4] it was 70%; in assay [5], 0%. For the same compound, the pest or weed control at 500 g/ha in assay [1] was found to be 70%; in assay [2], 40%; in assay [3], 0%; in assay [4], 90%; in assay [5], 0%.

Consider `Cc1c(F)ccc([C@H]2CN(C)C(=O)[C@@H]2C(=O)Nc2ccccc2F)c1F` [Compound 833], for which the pest or weed control at 125 g/ha in assay [1] was 70%; in assay [2] it was 70%; in assay [3], 0%; in assay [4], 90%; in assay [5] it was 0%. Further, the pest or weed control at 500 g/ha in assay [1] came to 80%; in assay [2], 80%; in assay [3], 0%; in assay [4], 90%; in assay [5], 20%.

With `Cc1c(F)ccc([C@H]2CN(C)C(=O)[C@@H]2C(=O)Nc2ccc(F)c(F)c2F)c1F` [Compound 836], the pest or weed control at 125 g/ha amounted to 90% in assay [1]; 90% in assay [2]; 30% in assay [3]; 90% in assay [4]; 0% in assay [5]. The pest or weed control at 500 g/ha in assay [1] was 80%; in assay [2], 90%; in assay [3], 60%; in assay [4], 90%; in assay [5], 0%.

`O=C1NC[C@H](c2cc(F)c(C(F)(F)F)c(F)c2)[C@H]1C(=O)Nc1ccc(F)cc1F` [Compound 840]: the pest or weed control at 125 g/ha in assay [1] stood at 0%; in assay [2], 0%; in assay [3] it was 30%; in assay [4], 80%; in assay [5], 0%. Moreover, the pest or weed control at 500 g/ha in assay [1] stood at 20%; in assay [2], 70%; in assay [3], 60%; in assay [4], 90%; in assay [5], 0%.

Regarding `Cc1c(F)ccc([C@H]2CN(C)C(=O)[C@@H]2C(=O)Nc2ccccc2C(F)(F)F)c1F` [Compound 841], the pest or weed control at 125 g/ha in assay [1] was determined as 0%; in assay [2] it was 40%; in assay [3], 0%; in assay [4], 90%; in assay [5], 0%. Further, the pest or weed control at 500 g/ha in assay [1] worked out at 40%; in assay [2] it was 60%; in assay [3], 30%; in assay [4], 100%; in assay [5], 0%.

Take `Cc1c(F)ccc([C@H]2CN(C)C(=O)[C@@H]2C(=O)Nc2ccccc2S(C)(=O)=O)c1F` [Compound 842]: the pest or weed control at 125 g/ha in assay [1] came out at 30%; in assay [2] it was 80%; in assay [3] it was 40%; in assay [4] it was 90%; in assay [5] it was 70%. Also, the pest or weed control at 500 g/ha was found to be 60% in assay [1]; 80% in assay [2]; 70% in assay [3]; 90% in assay [4]; 80% in assay [5].
